“And” between values parts separate entries of the source, which are not always exact repeats. Identical values can stand only once. ± gives the expanded uncertainty stated by the source.
Settings: for surface tension liquid-gas: Drop volume; for viscosity / speed of sound / mass density / vapor or sublimation pressure: Liquid; for viscosity: Capillary tube (Ostwald / Ubbelohde) method; for speed of sound: Frequency=3 MHz, Single path-length method; for mass density: Vibrating tube method; for vapor or sublimation pressure: Ebulliometric method (Recirculating still)

CCc1cccs1 [2-ethylthiophene]
Settings | surface tension liquid-gas [mN/m] | vapor or sublimation pressure [kPa]
278.15 K | 32.36 ± 0.3 | –
280.65 K | 32.11 ± 0.3 | –
283.15 K | 31.8 ± 0.3 | –
285.65 K | 31.55 ± 0.3 | –
288.15 K | 31.24 ± 0.29 | –
290.65 K | 30.98 ± 0.29 | –
292.41 K | – | 0.8 ± 0.1
293.15 K | 30.66 ± 0.29 | –
293.45 K | – | 0.84 ± 0.1
295.65 K | 30.44 ± 0.29 | –
296.81 K | – | 1.03 ± 0.1
298.04 K | – | 1.145 ± 0.1
298.15 K | 30.1 ± 0.29 | –
299.11 K | – | 1.23 ± 0.1
300.65 K | 29.86 ± 0.29 | –
302.95 K | – | 1.52 ± 0.1
303.15 K | 29.54 ± 0.29 | –
305.65 K | 29.3 ± 0.29 | –
308.07 K | – | 2.005 ± 0.1
308.15 K | 28.96 ± 0.29 | –
310.65 K | 28.73 ± 0.28 | –
312.28 K | – | 2.55 ± 0.1
313.15 K | 28.41 ± 0.28 | –

Settings | mass density | speed of sound [m/s] | viscosity [mPa·s]
278.15 K, 100 kPa | 1008.35 ± 0.54 kg/m3 | 1373.2 ± 1.1 | 0.9347 ± 0.0087
280.65 K, 100 kPa | 1005.86 ± 0.54 kg/m3 | 1363.4 ± 1.1 | 0.905 ± 0.0085
283.15 K, 100 kPa | 1003.44 ± 0.54 kg/m3 and 1003.37 ± 0.54 kg/m3 | 1354.2 ± 1.1 | 0.8766 ± 0.0083
283.15 K, 2000 kPa | 1004.84 ± 0.54 kg/m3 | – | –
283.15 K, 5000 kPa | 1007 ± 0.54 kg/m3 | – | –
283.15 K, 7000 kPa | 1008.42 ± 0.55 kg/m3 | – | –
283.15 K, 10000 kPa | 1010.51 ± 0.55 kg/m3 | – | –
283.15 K, 15000 kPa | 1013.9 ± 0.55 kg/m3 | – | –
283.15 K, 20000 kPa | 1017.18 ± 0.55 kg/m3 | – | –
283.15 K, 25000 kPa | 1020.37 ± 0.56 kg/m3 | – | –
283.15 K, 30000 kPa | 1023.45 ± 0.56 kg/m3 | – | –
283.15 K, 35000 kPa | 1026.45 ± 0.56 kg/m3 | – | –
283.15 K, 40000 kPa | 1029.36 ± 0.57 kg/m3 | – | –
283.15 K, 45000 kPa | 1032.2 ± 0.57 kg/m3 | – | –
283.15 K, 50000 kPa | 1034.96 ± 0.58 kg/m3 | – | –
283.15 K, 55000 kPa | 1037.65 ± 0.59 kg/m3 | – | –
283.15 K, 60000 kPa | 1040.28 ± 0.6 kg/m3 | – | –
283.15 K, 65000 kPa | 1042.84 ± 0.6 kg/m3 | – | –
285.65 K, 100 kPa | 1000.87 ± 0.54 kg/m3 | 1344.7 ± 1.1 | 0.8498 ± 0.0082
288.15 K, 100 kPa | 998.47 ± 0.54 kg/m3 and 998.38 ± 0.54 kg/m3 | 1334.1 ± 1.1 | 0.8244 ± 0.008
288.15 K, 2000 kPa | 999.91 ± 0.54 kg/m3 | – | –
288.15 K, 5000 kPa | 1002.13 ± 0.54 kg/m3 | – | –
288.15 K, 7000 kPa | 1003.59 ± 0.54 kg/m3 | – | –
288.15 K, 10000 kPa | 1005.73 ± 0.54 kg/m3 | – | –
288.15 K, 15000 kPa | 1009.2 ± 0.55 kg/m3 | – | –
288.15 K, 20000 kPa | 1012.57 ± 0.55 kg/m3 | – | –
288.15 K, 25000 kPa | 1015.82 ± 0.55 kg/m3 | – | –
288.15 K, 30000 kPa | 1018.97 ± 0.56 kg/m3 | – | –
288.15 K, 35000 kPa | 1022.04 ± 0.56 kg/m3 | – | –
288.15 K, 40000 kPa | 1025.03 ± 0.56 kg/m3 | – | –
288.15 K, 45000 kPa | 1027.9 ± 0.57 kg/m3 | – | –
288.15 K, 50000 kPa | 1030.72 ± 0.58 kg/m3 | – | –
288.15 K, 55000 kPa | 1033.47 ± 0.58 kg/m3 | – | –
288.15 K, 60000 kPa | 1036.14 ± 0.59 kg/m3 | – | –
288.15 K, 65000 kPa | 1038.73 ± 0.6 kg/m3 | – | –
290.65 K, 100 kPa | 995.88 ± 0.54 kg/m3 | 1325 ± 1.1 | 0.8003 ± 0.0079
293.15 K, 100 kPa | 993.45 ± 0.54 kg/m3 and 993.38 ± 0.54 kg/m3 | 1315.3 ± 1.1 | 0.7772 ± 0.0078
293.15 K, 2000 kPa | 994.92 ± 0.54 kg/m3 | – | –
293.15 K, 5000 kPa | 997.2 ± 0.54 kg/m3 | – | –
293.15 K, 7000 kPa | 998.7 ± 0.54 kg/m3 | – | –
293.15 K, 10000 kPa | 1000.9 ± 0.54 kg/m3 | – | –
293.15 K, 15000 kPa | 1004.46 ± 0.54 kg/m3 | – | –
293.15 K, 20000 kPa | 1007.92 ± 0.55 kg/m3 | – | –
293.15 K, 25000 kPa | 1011.25 ± 0.55 kg/m3 | – | –
293.15 K, 30000 kPa | 1014.49 ± 0.55 kg/m3 | – | –
293.15 K, 35000 kPa | 1017.62 ± 0.56 kg/m3 | – | –
293.15 K, 40000 kPa | 1020.67 ± 0.56 kg/m3 | – | –
293.15 K, 45000 kPa | 1023.61 ± 0.57 kg/m3 | – | –
293.15 K, 50000 kPa | 1026.49 ± 0.57 kg/m3 | – | –
293.15 K, 55000 kPa | 1029.29 ± 0.58 kg/m3 | – | –
293.15 K, 60000 kPa | 1032.01 ± 0.58 kg/m3 | – | –
293.15 K, 65000 kPa | 1034.65 ± 0.59 kg/m3 | – | –
295.65 K, 100 kPa | 990.88 ± 0.54 kg/m3 | 1305.8 ± 1.1 | 0.7554 ± 0.0077
298.15 K, 100 kPa | 988.39 ± 0.54 kg/m3 and 988.37 ± 0.54 kg/m3 | 1295.8 ± 1.1 | 0.7345 ± 0.0076
298.15 K, 2000 kPa | 989.91 ± 0.54 kg/m3 | – | –
298.15 K, 5000 kPa | 992.26 ± 0.54 kg/m3 | – | –
298.15 K, 7000 kPa | 993.8 ± 0.54 kg/m3 | – | –
298.15 K, 10000 kPa | 996.05 ± 0.54 kg/m3 | – | –
298.15 K, 15000 kPa | 999.7 ± 0.54 kg/m3 | – | –
298.15 K, 20000 kPa | 1003.24 ± 0.54 kg/m3 | – | –
298.15 K, 25000 kPa | 1006.67 ± 0.55 kg/m3 | – | –
298.15 K, 30000 kPa | 1009.97 ± 0.55 kg/m3 | – | –
298.15 K, 35000 kPa | 1013.18 ± 0.55 kg/m3 | – | –
298.15 K, 40000 kPa | 1016.3 ± 0.56 kg/m3 | – | –
298.15 K, 45000 kPa | 1019.31 ± 0.56 kg/m3 | – | –
298.15 K, 50000 kPa | 1022.24 ± 0.57 kg/m3 | – | –
298.15 K, 55000 kPa | 1025.1 ± 0.57 kg/m3 | – | –
298.15 K, 60000 kPa | 1027.87 ± 0.58 kg/m3 | – | –
298.15 K, 65000 kPa | 1030.59 ± 0.58 kg/m3 | – | –
300.65 K, 100 kPa | 985.87 ± 0.54 kg/m3 | 1285.4 ± 1.1 | 0.7148 ± 0.0075
303.15 K, 100 kPa | 983.42 ± 0.54 kg/m3 and 983.36 ± 0.54 kg/m3 | 1276.5 ± 1.1 | 0.696 ± 0.0074
303.15 K, 2000 kPa | 984.97 ± 0.54 kg/m3 | – | –
303.15 K, 5000 kPa | 987.39 ± 0.54 kg/m3 | – | –
303.15 K, 7000 kPa | 988.98 ± 0.54 kg/m3 | – | –
303.15 K, 10000 kPa | 991.3 ± 0.54 kg/m3 | – | –
303.15 K, 15000 kPa | 995.04 ± 0.54 kg/m3 | – | –
303.15 K, 20000 kPa | 998.67 ± 0.54 kg/m3 | – | –
303.15 K, 25000 kPa | 1002.17 ± 0.54 kg/m3 | – | –
303.15 K, 30000 kPa | 1005.54 ± 0.55 kg/m3 | – | –
303.15 K, 35000 kPa | 1008.81 ± 0.55 kg/m3 | – | –
303.15 K, 40000 kPa | 1012 ± 0.55 kg/m3 | – | –
303.15 K, 45000 kPa | 1015.07 ± 0.56 kg/m3 | – | –
303.15 K, 50000 kPa | 1018.07 ± 0.56 kg/m3 | – | –
303.15 K, 55000 kPa | 1020.99 ± 0.57 kg/m3 | – | –
303.15 K, 60000 kPa | 1023.81 ± 0.57 kg/m3 | – | –
303.15 K, 65000 kPa | 1026.56 ± 0.58 kg/m3 | – | –
305.65 K, 100 kPa | 980.85 ± 0.54 kg/m3 | 1266.7 ± 1.1 | 0.678 ± 0.0073
308.15 K, 100 kPa | 978.38 ± 0.54 kg/m3 and 978.33 ± 0.54 kg/m3 | 1256.8 ± 1.1 | 0.6606 ± 0.0072
308.15 K, 2000 kPa | 979.99 ± 0.54 kg/m3 | – | –
308.15 K, 5000 kPa | 982.48 ± 0.54 kg/m3 | – | –
308.15 K, 7000 kPa | 984.11 ± 0.54 kg/m3 | – | –
308.15 K, 10000 kPa | 986.49 ± 0.54 kg/m3 | – | –
308.15 K, 15000 kPa | 990.33 ± 0.54 kg/m3 | – | –
308.15 K, 20000 kPa | 994.05 ± 0.54 kg/m3 | – | –
308.15 K, 25000 kPa | 997.63 ± 0.54 kg/m3 | – | –
308.15 K, 30000 kPa | 1001.09 ± 0.54 kg/m3 | – | –
308.15 K, 35000 kPa | 1004.45 ± 0.55 kg/m3 | – | –
308.15 K, 40000 kPa | 1007.68 ± 0.55 kg/m3 | – | –
308.15 K, 45000 kPa | 1010.84 ± 0.55 kg/m3 | – | –
308.15 K, 50000 kPa | 1013.88 ± 0.56 kg/m3 | – | –
308.15 K, 55000 kPa | 1016.86 ± 0.56 kg/m3 | – | –
308.15 K, 60000 kPa | 1019.74 ± 0.57 kg/m3 | – | –
308.15 K, 65000 kPa | 1022.56 ± 0.57 kg/m3 | – | –
310.65 K, 100 kPa | 975.82 ± 0.54 kg/m3 | 1246.5 ± 1.1 | 0.6442 ± 0.0071
313.15 K, 100 kPa | – | – | 0.6282 ± 0.007

— the NIST ThermoML archive (doi:10.1021/acs.jced.8b00153)
